A word on the melting point: it is the temperature of the solid-liquid transition. As a reminder, the IC50 is the concentration at which inhibition is half-maximal.

For data set [1], the system named is Osteosarcoma Cells U2OS-EGFP-4A12G. The experiment in a line: Effect on the proliferation of osteosarcoma cells U2OS-EGFP-4A12G (MTT). The conditions noted are these: n = 3. It counts as cell-based. As to the method: Cells in the logarithmic growth phase were digested with trypsin, counted with trypan blue, and prepared into a cellular suspension with a density of 1×10^4 cells/mL. The suspension was seeded in a 96-well plate, 200 μL/well, about 2×10^3 cells/well, and pre-cultured for 24 h. […] A concentration of 0 mg/mL was used as a negative control group. After subsequent cultivatation for 0 h, 12 h, 24 h or 48 h, 20 μL MTT solution (5 mg/mL) was added to each well. The cultivation was terminated after another 4 h incubation. The supernatant in each well was sucked out carefully, and 150 μL of dimethyl sulfoxide (DMSO) was added to each well. The plate was shaken for 10 min, so that formazan was dissolved thoroughly. The absorption value (A value) of each well was measured using an enzyme linked immunosorbent detector, at a selected wavelength of 490 nm. The measurement was repeated for 5 times.

In data set [2] the test system is Ovarian Cancer Cells SKOV3. The data set can be described thus: Effect on the proliferation of ovarian cancer cells SKOV3 (MTT). The data set is classed as cell-based. As to the method:
Cells in the logarithmic growth phase were digested with trypsin, added to a 96-well plate, in a density of 6×10^3 cells/well, and cultured in a 37° C., 5% CO2 incubator. The next day, the plated was transferred to and kept in a 4° C. incubator for 1 h after the adherence of most cells, so as to achieve synchronized growth of the cells. The supernatant was sucked out, and a RPMI 1640 medium containing 10% fetal calf serum (FCS) was added, 200 μL/well. The cells were grouped according to the design of the experiment. The injectable solution of the compound prepared with sterile physiological saline was added to the 96 wells, 200 μL/well, so that the concentrate of the medicament in each well were 1 mg/mL, 2 mg/mL and 5 mg/mL, respectively. A concentration of 0 mg/mL was used as a negative control group. After subsequent cultivation for 24, 48, or 72 h, 20 μL MTT solution (with a concentration of 5 mg/mL) was added to each well, respectively. The plate was shaken gently, returned to the incubator and incubated for another 4 h. Then the supernatant was sucked out completely, and 200 μL of dimethyl sulfoxide was added to each well. The plate was shaken for 5-10 min on a shaker. The absorption (A=580) of each well at a wavelength of 580 nm was measured using a microplate reader. The A=580 value was proportional to the number of live cells.

`COc1ccc(-c2c(C(=O)c3ccccc3)oc3cc4c(cc23)CCCO4)cc1` [Example 1, 2-benzoyl-3-(4-methoxyphenyl)-6,7-dihydrogen-5H-furo[3,2-g]chromene]: the melting point was 106.3 to 108.5 °C. The molecule `COc1ccc(C(=O)c2oc3cc4c(cc3c2-c2ccccc2)CCCO4)cc1` [Example 2, 2-(4-methoxybenzoyl)-3-phenyl-6,7-dihydrogen-5H-furo[3,2-g]chromene] gave a melting point of 130.3 to 132.5 °C.

`COc1ccc(-c2c(C(=O)c3ccc(Cl)cc3)oc3cc4c(cc23)CCCO4)cc1` [Example 3, 2-(4-chlorobenzoyl)-3-(4-methoxyphenyl)-6,7-dihydrogen-5H-furo[3,2-g]chromene] registered an IC50 in data set [1] of 21.7 µM. For `O=C(c1ccccc1)c1oc2cc3c(cc2c1-c1ccc(O)cc1)CCCO3` [Example 7, 2-benzoyl-3-(4-hydroxyphenyl)-6,7-dihydrogen-5H-furo[3,2-g]chromene], the IC50 was 13.7 µM in data set [1] and 0.8 µM in data set [2] (Homo sapiens, SK-OV-3, n = 3). Turning to `CCN(CC)CCOc1ccc(-c2c(C(=O)c3ccccc3)oc3cc4c(cc23)CCCO4)cc1` [Example 21, 2-benzoyl-3-[4-(diethylaminoethoxy)phenyl]-6,7-dihydrogen-5H-furo[3,2-g]chromene], the IC50 in data set [1] was determined as 16.5 µM; in data set [2] (n = 3) it was 28.2 µM. The matching figures for `O=C(c1ccc(Cl)cc1)c1oc2cc3c(cc2c1-c1ccc(OCCN2CCCCC2)cc1)CCCO3` [Example 30, 2-(4-chlorobenzoyl)-3-[4-(piperidinoethoxy)phenyl]-6,7-dihydrogen-5H-furo[3,2-g]chromene]: 26.3 µM and 72.2 µM. As to `CCN(CC)CCOc1ccc(-c2c(C(=O)c3ccc(Cl)cc3)oc3cc4c(cc23)CCCO4)cc1` [Example 31, 2-(4-chlorobenzoyl)-3-[4-(diethylaminoethoxy)phenyl]-6,7-dihydrogen-5H-furo[3,2-g]chromene], the IC50 came out at 36.1 µM in data set [1] and 8.5 µM in data set [2] (Homo sapiens, SK-OV-3, n = 3). Take `CCN(CC)CCOc1ccc(-c2c(C(=O)c3ccc(C)cc3)oc3cc4c(cc23)CCCO4)cc1` [Example 35, 2-(4-methylbenzoyl)-3-[4-(diethylaminoethoxy)phenyl]-6,7-dihydrogen-5H-furo[3,2-g]chromene]: the IC50 in data set [1] is 5.8 µM; in data set [2] (Homo sapiens, SK-OV-3, n = 3), 29.7 µM.

Turning to `Cc1ccc(C(=O)c2oc3cc4c(cc3c2-c2ccc(OCCN(C)C)cc2)CCCO4)cc1` [Example 36, 2-(4-methylbenzoyl)-3-[4-(dimethylaminoethoxy)phenyl]-6,7-dihydrogen-5H-furo[3,2-g]chromene], the IC50 in data set [1] is 7.7 µM; in data set [2] (Homo sapiens, SK-OV-3, n = 3), 10.3 µM. The matching figures for `O=C(c1ccc(Br)cc1)c1oc2cc3c(cc2c1-c1ccc(OCCN2CCOCC2)cc1)CCCO3` [Example 41, 2-(4-bromobenzoyl)-3-[4-(morpholinoethoxy)phenyl]-6,7-dihydrogen-5H-furo[3,2-g]chromene]: 5 µM and 42.5 µM. As for `O=C(c1ccc(Br)cc1)c1oc2cc3c(cc2c1-c1ccc(OCCN2CCCCC2)cc1)CCCO3` [Example 42, 2-(4-bromobenzoyl)-3-[4-(piperidinoethoxy)phenyl]-6,7-dihydrogen-5H-furo[3,2-g]chromene], the IC50 in data set [1] was 13.3 µM; in data set [2] (Homo sapiens, SK-OV-3, n = 3), 32.8 µM. For `CN(C)CCOc1ccc(-c2c(C(=O)c3ccc(Br)cc3)oc3cc4c(cc23)CCCO4)cc1` [Example 44, 2-(4-bromobenzoyl)-3-[4-(dimethylaminoethoxy)phenyl]-6,7-dihydrogen-5H-furo[3,2-g]chromene], in that order: 15.6 µM and 19 µM. For `COc1ccc(-c2c(C(=O)c3ccc(OCCN4CCCCC4)cc3)oc3cc4c(cc23)CCCO4)cc1` [Example 48, 2-[4-(piperidinoethoxy)benzoyl]-3-(4-methoxyphenyl)-6,7-dihydrogen-5H-furo[3,2-g]chromene], in that order: 5.1 µM and 14.5 µM. The matching figures for `CCN(CC)CCOc1ccc(C(=O)c2oc3cc4c(cc3c2-c2ccc(OC)cc2)CCCO4)cc1` [Example 50, 2-[4-(diethylaminoethoxy)benzoyl]-3-(4-methoxyphenyl)-6,7-dihydrogen-5H-furo[3,2-g]chromene]: 5.5 µM and 14.5 µM. For `O=C(c1ccc(OCCN2CCCCC2)cc1)c1oc2cc3c(cc2c1-c1ccc(O)cc1)CCCO3` [Example 55, 2-[4-(piperidinoethoxy)benzoyl]-3-(4-hydroxyphenyl)-6,7-dihydrogen-5H-furo[3,2-g]chromene], the IC50 was found to be 10.8 µM in data set [1] and 13.6 µM in data set [2] (n = 3).
